# According to patent US20240228504A1, “SUBSTITUTED TRICYCLIC AMIDES, ANALOGUES THEREOF, AND METHODS USING SAME” (Arbutus Biopharma Corporation, priority 2020, published 2024):
# System: HBV rcDNA in HepDE19 cells
# Experiment: HepDE19 assay with bDNA quantitation of HBV rcDNA
# Type: cell-based, hepatitis B virus
# Conditions: HepDE19 assay, inhibition of rcDNA formation, bDNA quantitation; read-out: DE-19bDNA EC50
row,SMILES,EC50 [µM]
1,"CN(C(=O)c1cc2sc(Cl)cc2[nH]1)C1CNCc2[nH]c(=O)c3cc(F)c(F)cc3c21 (single isomer, unassigned) [Compound 453, 2-chloro-N-(8,9-difluoro-6-oxo-1,2,3,4,5,6-hexahydrobenzo[c][1,7]naphthyridin-1-yl)-N-methyl-4H-thieno[3,2-b]pyrrole-5-carboxamide]",2.2
2,"CN(C(=O)c1cc2sc(Cl)cc2[nH]1)C1CNCc2[nH]c(=O)c3cc(F)c(F)cc3c21 (single isomer, unassigned) [Compound 454, 2-chloro-N-(8,9-difluoro-6-oxo-1,2,3,4,5,6-hexahydrobenzo[c][1,7]naphthyridin-1-yl)-N-methyl-4H-thieno[3,2-b]pyrrole-5-carboxamide]",0.02
3,"Cc1cccc2[nH]c(C(=O)N(C)C3CNCc4[nH]c(=O)c5cc(F)c(F)cc5c43)cc12 (single isomer, unassigned) [Compound 456, N-(8,9-difluoro-6-oxo-1,2,3,4,5,6-hexahydrobenzo[c][1,7]naphthyridin-1-yl)-N,4-dimethyl-1H-indole-2-carboxamide]",2.2
4,"Cc1cccc2[nH]c(C(=O)N(C)C3CNCc4[nH]c(=O)c5cc(F)c(F)cc5c43)cc12 (single isomer, unassigned) [Compound 457, N-(8,9-difluoro-6-oxo-1,2,3,4,5,6-hexahydrobenzo[c][1,7]naphthyridin-1-yl)-N,4-dimethyl-1H-indole-2-carboxamide]",0.01
5,"Cc1cc(F)cc2[nH]c(C(=O)N(C)C3CNCc4[nH]c(=O)c5cc(F)c(F)cc5c43)cc12 (single isomer, unassigned) [Compound 458, N-(8,9-difluoro-6-oxo-1,2,3,4,5,6-hexahydrobenzo[c][1,7]naphthyridin-1-yl)-6-fluoro-N,4-dimethyl-1H-indole-2-carboxamide]",6.6
6,"Cc1cc(F)cc2[nH]c(C(=O)N(C)C3CNCc4[nH]c(=O)c5cc(F)c(F)cc5c43)cc12 (single isomer, unassigned) [Compound 459, N-(8,9-difluoro-6-oxo-1,2,3,4,5,6-hexahydrobenzo[c][1,7]naphthyridin-1-yl)-6-fluoro-N,4-dimethyl-1H-indole-2-carboxamide]",0.01
7,"CN(C(=O)c1cc2c(Cl)cc(F)cc2[nH]1)C1CNCc2[nH]c(=O)c3cc(F)c(F)cc3c21 (single isomer, unassigned) [Compound 460, 4-chloro-N-(8,9-difluoro-6-oxo-1,2,3,4,5,6-hexahydrobenzo[c][1,7]naphthyridin-1-yl)-6-fluoro-N-methyl-1H-indole-2-carboxamide]",11.2
8,"CN(C(=O)c1cc2c(Cl)cc(F)cc2[nH]1)C1CNCc2[nH]c(=O)c3cc(F)c(F)cc3c21 (single isomer, unassigned) [Compound 461, 4-chloro-N-(8,9-difluoro-6-oxo-1,2,3,4,5,6-hexahydrobenzo[c][1,7]naphthyridin-1-yl)-6-fluoro-N-methyl-1H-indole-2-carboxamide]",0.03
9,"CN(C(=O)c1ccc2ncsc2c1)C1CNCc2[nH]c(=O)c3cc(F)c(F)cc3c21 (single isomer, unassigned) [Compound 465, N-(8,9-difluoro-6-oxo-1,2,3,4,5,6-hexahydrobenzo[c][1,7]naphthyridin-1-yl)-N-methylbenzo[d]thiazole-6-carboxamide]",3.2
10,"CN(C(=O)c1cc2ccccc2[nH]1)C1CCCc2[nH]c(=O)c3cc(F)c(F)cc3c21 (single isomer, unassigned) [Compound 466, N-(8,9-Difluoro-6-oxo-1,2,3,4,5,6-hexahydrophenanthridin-1-yl)-N-methyl-1H-indole-2-carboxamide]",2.1
11,"CN(C(=O)c1cc2ccccc2[nH]1)C1CCCc2[nH]c(=O)c3cc(F)c(F)cc3c21 (single isomer, unassigned) [Compound 467, N-(8,9-Difluoro-6-oxo-1,2,3,4,5,6-hexahydrophenanthridin-1-yl)-N-methyl-1H-indole-2-carboxamide]",0.01
12,"CN(C(=O)c1ccc2cn[nH]c2c1)C1COCc2[nH]c(=O)c3cc(F)ccc3c21 (single isomer, unassigned) [Compound 470, N-(8-fluoro-6-oxo-1,4,5,6-tetrahydro-2H-pyrano[3,4-c]isoquinolin-1-yl)-N-methyl-1H-indazole-6-carboxamide]",1.1
13,"CN(C(=O)c1ccc2c(c1)CCC2)C1CNCc2[nH]c(=O)c3cc(F)c(F)cc3c21 (single isomer, unassigned) [Compound 471, N-(8,9-difluoro-6-oxo-1,2,3,4,5,6-hexahydrobenzo[c][1,7]naphthyridin-1-yl)-N-methyl-2,3-dihydro-1H-indene-5-carboxamide]",8.7
14,"CN(C(=O)c1ccc2c(c1)CCC2)C1CNCc2[nH]c(=O)c3cc(F)c(F)cc3c21 (single isomer, unassigned) [Compound 472, N-(8,9-difluoro-6-oxo-1,2,3,4,5,6-hexahydrobenzo[c][1,7]naphthyridin-1-yl)-N-methyl-2,3-dihydro-1H-indene-5-carboxamide]",0.04
15,"CN(C(=O)c1cc2ccccc2[nH]1)C1CCCc2[nH]c(=O)c3cc(F)ccc3c21 (single isomer, unassigned) [Compound 475, N-(8-Fluoro-6-oxo-1,2,3,4,5,6-hexahydrophenanthridin-1-yl)-N-methyl-1H-indole-2-carboxamide]",1.8
16,"CN(C(=O)c1cc2ccccc2[nH]1)C1CCCc2[nH]c(=O)c3cc(F)ccc3c21 (single isomer, unassigned) [Compound 476, N-(8-Fluoro-6-oxo-1,2,3,4,5,6-hexahydrophenanthridin-1-yl)-N-methyl-1H-indole-2-carboxamide]",0.02
17,"CN(C(=O)c1ccc2cn[nH]c2c1)C1CNCc2[nH]c(=O)c3cc(F)c(F)cc3c21 (single isomer, unassigned) [Compound 495, N-(8,9-difluoro-6-oxo-1,2,3,4,5,6-hexahydrobenzo[c][1,7]naphthyridin-1-yl)-N-methyl-1H-indazole-6-carboxamide]",> 25
18,"CN(C(=O)c1ccc2cn[nH]c2c1)C1CNCc2[nH]c(=O)c3cc(F)c(F)cc3c21 (single isomer, unassigned) [Compound 496, N-(8,9-difluoro-6-oxo-1,2,3,4,5,6-hexahydrobenzo[c][1,7]naphthyridin-1-yl)-N-methyl-1H-indazole-6-carboxamide]",4.2
19,"CN(C(=O)c1cc2sc(F)cc2[nH]1)C1COCc2[nH]c(=O)c3cc(F)ccc3c21 (single isomer, unassigned) [Compound 497, 2-fluoro-N-(8-fluoro-6-oxo-1,4,5,6-tetrahydro-2H-pyrano[3,4-c]isoquinolin-1-yl)-N-methyl-4H-thieno[3,2-b]pyrrole-5-carboxamide]",1.2
20,"CN(C(=O)c1cc2sc(F)cc2[nH]1)C1COCc2[nH]c(=O)c3cc(F)ccc3c21 (single isomer, unassigned) [Compound 498, 2-fluoro-N-(8-fluoro-6-oxo-1,4,5,6-tetrahydro-2H-pyrano[3,4-c]isoquinolin-1-yl)-N-methyl-4H-thieno[3,2-b]pyrrole-5-carboxamide]",0.08
21,"CN(C(=O)c1cc2sc(F)cc2[nH]1)C1CNCc2[nH]c(=O)c3cc(F)c(F)cc3c21 (single isomer, unassigned) [Compound 499, N-(8,9-difluoro-6-oxo-1,2,3,4,5,6-hexahydrobenzo[c][1,7]naphthyridin-1-y1)-2-fluoro-N-methyl-4H-thieno[3,2-b]pyrrole-5-carboxamide]",20
22,"CN(C(=O)c1cc2sc(F)cc2[nH]1)C1CNCc2[nH]c(=O)c3cc(F)c(F)cc3c21 (single isomer, unassigned) [Compound 500, N-(8,9-difluoro-6-oxo-1,2,3,4,5,6-hexahydrobenzo[c][1,7]naphthyridin-1-yl)-2-fluoro-N-methyl-4H-thieno[3,2-b]pyrrole-5-carboxamide]",0.03
23,"CN(C(=O)c1cc2cc(F)ccc2[nH]1)[C@@H]1CCC(O)c2[nH]c(=O)c3cc(F)c(F)cc3c21 (single isomer, unassigned) [Compound 501]",0.01
24,"CN(C(=O)c1cc2cc(F)ccc2[nH]1)[C@@H]1CCC(O)c2[nH]c(=O)c3cc(F)c(F)cc3c21 (single isomer, unassigned) [Compound 502]",0.03
25,"CN(C(=O)c1cc2ccccc2[nH]1)[C@@H]1CCC(O)c2[nH]c(=O)c3cc(F)c(F)cc3c21 (single isomer, unassigned) [Compound 504]",0.58
26,"CN(C(=O)c1cc2ccccc2[nH]1)[C@@H]1CCC(O)c2[nH]c(=O)c3cc(F)c(F)cc3c21 (single isomer, unassigned) [Compound 505]",0.05
27,"CN(C(=O)c1cc2ccccn2c1)C1CNCc2[nH]c(=O)c3cc(F)c(F)cc3c21 (single isomer, unassigned) [Compound 506, N-(8,9-Difluoro-6-oxo-1,2,3,4,5,6-hexahydrobenzo[c][1,7]naphthyridin-1-yl)-N-methylindolizine-2-carboxamide]",22

# Same assay, conditions: Hepatitis B virus, HepDE19, HepDE19 assay, inhibition of rcDNA formation, bDNA quantitation; read-out: DE-19bDNA EC50
row,SMILES,EC50 [µM]
1,"CN(C(=O)c1ccc2scnc2c1)C1CNCc2[nH]c(=O)c3cc(F)c(F)cc3c21 (single isomer, unassigned) [Compound 463, N-(8,9-difluoro-6-oxo-1,2,3,4,5,6-hexahydrobenzo[c][1,7]naphthyridin-1-yl)-N-methylbenzo[d]thiazole-5-carboxamide]",2
2,"CN(C(=O)c1ccc2cn[nH]c2c1)C1COCc2[nH]c(=O)c3cc(F)ccc3c21 (single isomer, unassigned) [Compound 469, N-(8-fluoro-6-oxo-1,4,5,6-tetrahydro-2H-pyrano[3,4-c]isoquinolin-1-yl)-N-methyl-1H-indazole-6-carboxamide]",2.2
3,"CN(C(=O)c1ccc2[nH]ncc2c1)C1CNCc2[nH]c(=O)c3cc(F)c(F)cc3c21 (single isomer, unassigned) [Compound 474, N-(8,9-difluoro-6-oxo-1,2,3,4,5,6-hexahydrobenzo[c][1,7]naphthyridin-1-yl)-N-methyl-1H-indazole-5-carboxamide]",3.8
